According to patent US11479538B2, “Tetrazolone-substituted dihydropyridinone MGAT2 inhibitors” (BRISTOL-MYERS SQUIBB COMPANY, priority 2014, dated 2022):

Target: human MGAT-2 (Homo sapiens (Human), UniProt Q3SYC2)
Experiment: MGAT LCMS Assay
Assay type: biochemical
Settings: human recombinant MGAT-2 membranes expressed in Sf9 cells; LC/MS readout of diolein; read-out: h-MGAT LCMS IC50
Experimental: The MGAT enzyme reactions were performed in Corning FALCON® 96-well polypropylene plates, in a total volume of 60 μL of 50 mM potassium phosphate buffer pH 7.4, containing a final concentration of 100 μM 2-oleoylglycerol, 15 μM oleoyl-coenzyme A and […] human or mouse MGAT-2 or […] rat recombinant MGAT-2 membranes expressed in Sf9 cells. Assay plates were run through a fully automated robotics system and shaken for 5 seconds every minute for a total 10 minutes. The reactions were then quenched with 120 μL of ice cold methanol containing 1 μg/mL 1,2-distearoyl-rac-glycerol as the internal standard. Plates were shaken for 2 minutes and spun down to remove protein precipitation. After the spin, samples were transferred to LC/MS compatible PCR plates. For LC/MS analysis, a ThermoFisher Surveyor pump, utilizing a Waters SYMMETRY® C8, 50×2.1 mm column, was used for the chromatography of enzyme products. The buffer system consists of 0.1% formic acid in water with a mobile phase consisting 0.1% formic acid in methanol. The shallow gradient is 90-100% mobile phase in 0.2 min with a total run time of 2.3 min. […]
The exemplified Examples disclosed below were tested in the MGAT2 in vitro assays described above and were found having MGAT2 inhibitory activity. Table 1 below lists human MGAT2 IC50 values measured for the following examples.

Sequence of human MGAT-2 (Q3SYC2 whole entry): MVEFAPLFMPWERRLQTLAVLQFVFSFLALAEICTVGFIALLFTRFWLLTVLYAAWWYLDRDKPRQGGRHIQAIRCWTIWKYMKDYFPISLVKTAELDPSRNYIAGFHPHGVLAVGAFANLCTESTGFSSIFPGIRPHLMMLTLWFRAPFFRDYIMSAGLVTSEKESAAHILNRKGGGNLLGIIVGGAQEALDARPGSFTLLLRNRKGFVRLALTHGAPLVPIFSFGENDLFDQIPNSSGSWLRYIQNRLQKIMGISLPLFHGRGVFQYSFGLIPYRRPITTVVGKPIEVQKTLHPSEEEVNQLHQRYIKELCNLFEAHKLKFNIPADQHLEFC

O=C1N[C@@](c2ccc(OCCCC(F)(F)F)cc2F)(C(F)(F)F)CC(c2ncc(C3CC3)s2)=C1n1nn[nH]c1=O [Example 22, (S)-4-(5-cyclopropylthiazol-2-yl)-6-(2-fluoro-4-(4,4,4-trifluorobutoxy)phenyl)-3-(5-oxo-4,5-dihydro-1H-tetrazol-1-yl)-6-(trifluoromethyl)-5,6-dihydropyridin-2(1H)-one]
IC50: 2 nM
